Test system: HLA-A*24
Assay: MHC binding assay (UV-ligand exchange, β2m ELISA)
Design: species or system human

| Substance | Peptide exchange (peptide exchange yield, MHC class I binding score) |
| --- | --- |
| 33 (KSSVIASLLF; listed as Homo sapiens) [compound 33] | “+++” (>50 = +++) |
| 34 (MQPRMFFLF; listed as Homo sapiens) [compound 34] | “++++” (>75% = ++++) |
| 35 (KYLEESVWL; listed as Homo sapiens) [compound 35] | “++++” (>75% = ++++) |
| 36 (KQMEDGHTLF; listed as Homo sapiens) [compound 36] | “++” (>20% = ++) |
| 37 (QWPWQASLQF; listed as Homo sapiens) [compound 37] | “++++” (>75% = ++++) |
| 38 (KYTNWKAFL; listed as Homo sapiens) [compound 38] | “++++” (>75% = ++++) |
| 39 (LIFMLANVF; listed as Homo sapiens) [compound 39] | “+” (>10% = +) |
| 40 (QYEPPSAPSTTF; listed as Homo sapiens) [compound 40] | “+++” (>50 = +++) |
| 42 (TLPNTIYRF; listed as Homo sapiens) [compound 42] | “++++” (>75% = ++++) |
| 43 (IQMDEPMAF; listed as Homo sapiens) [compound 43] | “+” (>10% = +) |
| 44 (AYLSAVGTF; listed as Homo sapiens) [compound 44] | “++++” (>75% = ++++) |
| 45 (KYFVPPQLF; listed as Homo sapiens) [compound 45] | “++++” (>75% = ++++) |
| 46 (AFPVTSIFHTF; listed as Homo sapiens) [compound 46] | “++++” (>75% = ++++) |
| 47 (KYADYFLEV; listed as Homo sapiens) [compound 47] | “++++” (>75% = ++++) |
| 48 (VFIDHPVHLKF; listed as Homo sapiens) [compound 48] | “++++” (>75% = ++++) |
| 49 (LYISEVRNI; listed as Homo sapiens) [compound 49] | “++++” (>75% = ++++) |
| 50 (SYPELVKMVW; listed as Homo sapiens) [compound 50] | “++++” (>75% = ++++) |
| 51 (KYALLLQEL; listed as Homo sapiens) [compound 51] | “++++” (>75% = ++++) |
| 52 (KYMKIFHKF; listed as Homo sapiens) [compound 52] | “++++” (>75% = ++++) |
| 53 (KYITNLEDL; listed as Homo sapiens) [compound 53] | “++++” (>75% = ++++) |
| 54 (LLIKLLQTF; listed as Homo sapiens) [compound 54] | “+++” (>50 = +++) |
| 55 (RWMDQRLVF; listed as Homo sapiens) [compound 55] | “++++” (>75% = ++++) |
| 56 (VYMIEPLEL; listed as Homo sapiens) [compound 56] | “++++” (>75% = ++++) |

| Substance | Peptide exchange (peptide exchange yield, MHC class I binding score) |
| --- | --- |
| 57 (YPSIIQEF; listed as Homo sapiens) [compound 57] | “++++” (>75% = ++++) |
| 58 (QFAAPLRGIYF; listed as Homo sapiens) [compound 58] | “++++” (>75% = ++++) |
| 63 (VMPSDSFFF; listed as Homo sapiens) [compound 63] | “++++” (>75% = ++++) |
| 64 (NYAIFDEGHML; listed as Homo sapiens) [compound 64] | “++++” (>75% = ++++) |
| 67 (RYPGKFYRV; listed as Homo sapiens) [compound 67] | “++++” (>75% = ++++) |
| 68 (IYQQIIQTY; listed as Homo sapiens) [compound 68] | “++++” (>75% = ++++) |
| 69 (IMPEKFEFW; listed as Homo sapiens) [compound 69] | “++++” (>75% = ++++) |
| 70 (PYTNYTFDF; listed as Homo sapiens) [compound 70] | “++++” (>75% = ++++) |
| 71 (SYMVLAPVF; listed as Homo sapiens) [compound 71] | “++++” (>75% = ++++) |
| 73 (SYIGLPLTL; listed as Homo sapiens) [compound 73] | “+++” (>50 = +++) |
| 74 (VYDQYFITL; listed as Homo sapiens) [compound 74] | “++++” (>75% = ++++) |
| 75 (NYIYSISVF; listed as Homo sapiens) [compound 75] | “++++” (>75% = ++++) |
| 77 (AYTLLGHEFV; listed as Homo sapiens) [compound 77] | “+” (>10% = +) |
| 78 (TWFPKTPMLF; listed as Homo sapiens) [compound 78] | “++++” (>75% = ++++) |
| 80 (YYSPLRDLL; listed as Homo sapiens) [compound 80] | “++++” (>75% = ++++) |
| 81 (LYPEGLRLL; listed as Homo sapiens) [compound 81] | “++++” (>75% = ++++) |
| 82 (RFLPSPVVI; listed as Homo sapiens) [compound 82] | “++++” (>75% = ++++) |
| 376 (KYVKDFHKF; listed as Homo sapiens) [compound 376] | “++++” (>75% = ++++) |
| 377 (VYVGAVNRI; listed as Homo sapiens) [compound 377] | “++++” (>75% = ++++) |
| 378 (KFLGPAEHLTF; listed as Homo sapiens) [compound 378] | “++++” (>75% = ++++) |
| 381 (TYSKKHFRI; listed as Homo sapiens) [compound 381] | “++++” (>75% = ++++) |
| 382 (IYHSHHPTL; listed as Homo sapiens) [compound 382] | “+++” (>50 = +++) |
| 385 (MYINEVERL; listed as Homo sapiens) [compound 385] | “++++” (>75% = ++++) |
